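1) Cells in 96-well plates. 2) Compound, 48 h, 5 concentrations. 3) Linear interpolation between surrounding doses. 4) Unreached endpoint = highest concentration. Here, GI50 denotes the concentration required for 50% inhibition of growth. TGI is the concentration that stops growth completely.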
Legend:
Test in all cases: NCI-60 cell line screen, 48 h
SNB-78 CNS = test system: SNB-78 CNS
LXFL 529 NSCLC = test system: LXFL 529 NSCLC
DLD-1 colon = test system: DLD-1 colon
DMS 273 small cell lung = test system: DMS 273 small cell lung
RXF-631 renal = test system: RXF-631 renal
XF 498 CNS = test system: XF 498 CNS
M19-MEL melanoma = test system: M19-MEL melanoma
HOP-18 NSCLC = test system: HOP-18 NSCLC
HCT-116 colon = test system: HCT-116 colon
SK-MEL-5 melanoma = test system: SK-MEL-5 melanoma
A549 NSCLC = test system: A549 NSCLC
DMS 114 small cell lung = test system: DMS 114 small cell lung
KM20L2 colon = test system: KM20L2 colon
T-47D breast = test system: T-47D breast

With `C=C(C(=C)N1N=NC2C3CCC(C3)C21)N1N=NC2C3CCC(C3)C21` (configuration not stated) the TGI (SNB-78 CNS) was over 100 µM, the TGI (LXFL 529 NSCLC) was over 100 µM and the TGI (DLD-1 colon) was over 100 µM. For the same compound, the TGI (DMS 273 small cell lung) was over 100 µM, the TGI (RXF-631 renal) was over 100 µM and the TGI (XF 498 CNS) was over 100 µM. It also gave a TGI (M19-MEL melanoma) of over 100 µM, a TGI (HOP-18 NSCLC) of over 100 µM and a TGI (HCT-116 colon) of over 100 µM. It also gave a TGI (SK-MEL-5 melanoma) of over 100 µM, a TGI (A549 NSCLC) of over 100 µM and a TGI (DMS 114 small cell lung) of over 100 µM.
`COC(=O)C(Br)C1CCc2ccccc21` (configuration not stated) was tested, and the TGI (LXFL 529 NSCLC) was over 100 µM, the TGI (DLD-1 colon) was over 100 µM and the TGI (KM20L2 colon) was over 100 µM. For the same compound, the TGI (DMS 273 small cell lung) was over 100 µM, the TGI (RXF-631 renal) was over 100 µM and the TGI (M19-MEL melanoma) was over 100 µM. It also gave a TGI (HOP-18 NSCLC) of over 100 µM, a TGI (HCT-116 colon) of over 100 µM and a TGI (SK-MEL-5 melanoma) of over 100 µM. The TGI (A549 NSCLC) was over 100 µM and the TGI (DMS 114 small cell lung) was over 100 µM.
`C[N+](C)(C)CC(=O)N/N=C(\C(=O)NC1=C(Cl)C(=O)c2ccccc2C1=O)C(C#N)c1nc(-c2ccc([N+](=O)[O-])cc2)cs1` (configuration not stated) showed a TGI (SNB-78 CNS) of 48.2 µM, a TGI (LXFL 529 NSCLC) of 21.4 µM and a TGI (DLD-1 colon) of 29.5 µM. It also gave a TGI (KM20L2 colon) of 42.5 µM, a TGI (DMS 273 small cell lung) of 33.7 µM and a TGI (XF 498 CNS) of 21.1 µM. The TGI (M19-MEL melanoma) was 2.2 µM, the TGI (HOP-18 NSCLC) was 18 µM and the TGI (HCT-116 colon) was 20.8 µM. It also gave a TGI (T-47D breast) of 37.9 µM, a TGI (SK-MEL-5 melanoma) of 2.7 µM and a TGI (A549 NSCLC) of 19.4 µM. It also gave a TGI (DMS 114 small cell lung) of 9.62 µM.
`Cc1ccc(C(=O)/C=C/c2cccc([N+](=O)[O-])c2)cc1` gave a TGI (SNB-78 CNS) of over 100 µM, a TGI (LXFL 529 NSCLC) of over 100 µM and a TGI (DLD-1 colon) of over 85.8 µM. The TGI (KM20L2 colon) was over 100 µM, the TGI (DMS 273 small cell lung) was over 100 µM and the TGI (RXF-631 renal) was over 100 µM. The TGI (M19-MEL melanoma) was over 62.3 µM, the TGI (HOP-18 NSCLC) was over 100 µM and the TGI (HCT-116 colon) was 31.8 µM. It also gave a TGI (SK-MEL-5 melanoma) of over 100 µM, a TGI (A549 NSCLC) of over 100 µM and a TGI (DMS 114 small cell lung) of over 80.9 µM.
`CCOC(=O)c1cnc2sc3ccc4ccccc4c3n2c1=O` showed a TGI (SNB-78 CNS) of over 100 µM, a TGI (LXFL 529 NSCLC) of over 100 µM and a TGI (DLD-1 colon) of over 100 µM. The TGI (KM20L2 colon) was over 100 µM, the TGI (DMS 273 small cell lung) was over 100 µM and the TGI (RXF-631 renal) was over 100 µM. The TGI (M19-MEL melanoma) was over 100 µM, the TGI (HOP-18 NSCLC) was over 100 µM and the TGI (HCT-116 colon) was over 100 µM. The TGI (SK-MEL-5 melanoma) was over 100 µM, the TGI (A549 NSCLC) was over 100 µM and the TGI (DMS 114 small cell lung) was over 100 µM.
For `COc1ccc(/C=C2\CCC(CCN(C)C)(C3=CCCC3)C2=O)cc1Br` (configuration not stated), the TGI (SNB-78 CNS) was 30.4 µM, the TGI (LXFL 529 NSCLC) was 15.8 µM and the TGI (DLD-1 colon) was 16.4 µM. The TGI (KM20L2 colon) was 3.56 µM, the TGI (DMS 273 small cell lung) was 14.6 µM and the TGI (RXF-631 renal) was 31.1 µM. It also gave a TGI (XF 498 CNS) of 8.72 µM, a TGI (M19-MEL melanoma) of 7.86 µM and a TGI (HOP-18 NSCLC) of 25.2 µM. It also gave a TGI (HCT-116 colon) of 17.1 µM, a TGI (SK-MEL-5 melanoma) of 3.15 µM and a TGI (A549 NSCLC) of 24 µM. It also gave a TGI (DMS 114 small cell lung) of 14.9 µM.
Compound `CCCCNC(=O)C1C2CCC(O2)C1C(=O)O` (configuration not stated) has a TGI (SNB-78 CNS) of over 100 µM, a TGI (LXFL 529 NSCLC) of 34.6 µM and a TGI (DLD-1 colon) of 49.4 µM. For the same compound, the TGI (KM20L2 colon) was 27.4 µM, the TGI (DMS 273 small cell lung) was over 100 µM and the TGI (RXF-631 renal) was over 100 µM. It also gave a TGI (XF 498 CNS) of 19.2 µM, a TGI (M19-MEL melanoma) of 41.4 µM and a TGI (HOP-18 NSCLC) of 90.9 µM. It also gave a TGI (HCT-116 colon) of 25.2 µM, a TGI (SK-MEL-5 melanoma) of 45.8 µM and a TGI (A549 NSCLC) of over 100 µM. The TGI (DMS 114 small cell lung) was 28.2 µM.
Compound `C=C1C(OC(=O)/C=C/c2ccccc2)CC(OC(C)=O)C2(C)C1CC1CC(OC(C)=O)C(C)=C(C(OC(C)=O)C2OC(C)=O)C1(C)C` (configuration not stated) has a TGI (SNB-78 CNS) of over 100 µM, a TGI (LXFL 529 NSCLC) of over 100 µM and a TGI (KM20L2 colon) of over 100 µM. The TGI (DMS 273 small cell lung) was over 100 µM, the TGI (RXF-631 renal) was over 100 µM and the TGI (M19-MEL melanoma) was over 100 µM. The TGI (HOP-18 NSCLC) was over 100 µM, the TGI (HCT-116 colon) was over 100 µM and the TGI (SK-MEL-5 melanoma) was over 100 µM. The TGI (A549 NSCLC) was over 100 µM and the TGI (DMS 114 small cell lung) was over 100 µM.
Work on `O=c1cc(-c2ccco2)[nH]c2cc3c(cc12)OCO3` yielded a TGI (LXFL 529 NSCLC) of over 100 µM, a TGI (DLD-1 colon) of over 100 µM and a GI50 (KM20L2 colon) of 21.2 µM. The TGI (KM20L2 colon) was 66.8 µM, the TGI (DMS 273 small cell lung) was over 100 µM and the TGI (RXF-631 renal) was over 100 µM. It also gave a TGI (XF 498 CNS) of 82.4 µM, a TGI (M19-MEL melanoma) of over 100 µM and a GI50 (HCT-116 colon) of 39.9 µM. It also gave a TGI (HCT-116 colon) of over 100 µM, a GI50 (SK-MEL-5 melanoma) of 13.4 µM and a TGI (SK-MEL-5 melanoma) of over 100 µM. For the same compound, the TGI (A549 NSCLC) was over 100 µM, the GI50 (DMS 114 small cell lung) was 37.2 µM and the TGI (DMS 114 small cell lung) was over 100 µM.
Compound `C#CCN(N=O)C(=O)NCCCCC(NC(C)=O)C(=O)NCc1ccccc1` (configuration not stated) has a TGI (SNB-78 CNS) of over 100 µM, a TGI (LXFL 529 NSCLC) of over 100 µM and a TGI (DLD-1 colon) of over 100 µM. For the same compound, the TGI (KM20L2 colon) was over 100 µM, the TGI (XF 498 CNS) was over 100 µM and the TGI (M19-MEL melanoma) was over 100 µM. The TGI (HOP-18 NSCLC) was over 100 µM, the TGI (HCT-116 colon) was over 100 µM and the TGI (SK-MEL-5 melanoma) was over 100 µM. For the same compound, the TGI (A549 NSCLC) was over 100 µM and the TGI (DMS 114 small cell lung) was over 100 µM.
`O=C1c2ccccc2C(=O)C1C(c1ccc(F)cc1)C1C(=O)c2ccccc2C1=O` showed a TGI (SNB-78 CNS) of over 100 µM, a TGI (LXFL 529 NSCLC) of over 100 µM and a TGI (DLD-1 colon) of over 100 µM. It also gave a TGI (KM20L2 colon) of over 100 µM, a TGI (DMS 273 small cell lung) of over 100 µM and a TGI (RXF-631 renal) of over 100 µM. For the same compound, the TGI (XF 498 CNS) was over 100 µM, the TGI (M19-MEL melanoma) was over 100 µM and the TGI (HOP-18 NSCLC) was over 100 µM. The TGI (HCT-116 colon) was over 100 µM, the TGI (SK-MEL-5 melanoma) was over 100 µM and the TGI (A549 NSCLC) was over 100 µM. The TGI (DMS 114 small cell lung) was over 100 µM.
`C/C=C1\CN2CCc3c([nH]c4ccccc34)C2C=C1CCO` (configuration not stated) gave a TGI (LXFL 529 NSCLC) of over 340 µM, a TGI (DLD-1 colon) of over 340 µM and a TGI (KM20L2 colon) of over 340 µM. The TGI (DMS 273 small cell lung) was over 340 µM, the TGI (RXF-631 renal) was over 340 µM and the TGI (XF 498 CNS) was over 340 µM. For the same compound, the TGI (M19-MEL melanoma) was over 340 µM, the TGI (HCT-116 colon) was over 340 µM and the TGI (SK-MEL-5 melanoma) was over 340 µM. It also gave a TGI (A549 NSCLC) of over 340 µM and a TGI (DMS 114 small cell lung) of over 340 µM.

From PubChem BioAssay (NCI)
